Data set [1] can be described thus: Potentiometric titration, equilibrium constants of complex species in aqueous solution. In kind it is physicochemical. Conditions: for Logarithm of equilibrium constant, reaction 1: A + H3O^+ ⇋ AH^+ + H2O (AH^+ = bpyH^+ or phenH^+) / Logarithm of equilibrium constant, reaction 2 ([drawing 1]) / Logarithm of equilibrium constant, reaction 3 ([drawing 2]): 298.15 K, ionic strength 0.1 M NaClO4, standard deviation in parentheses. How it is done:
Potentiometric titrations were performed at 298.15 K by using Cerko Lab System microtitration unit fitted with 5‐mL Hamilton’s syringe and pH‐combined electrode (Schott‐BlueLine 16 pH type) All details for the measuring devices and the experimental setup were described in (Wyrzykowski et al. [2014]). The ionic strength was maintained at 0.1 M using NaClO4. The 6 mM [bpyH][VO(nta)(H2O)]H2O and [phenH][VO(nta)(H2O)](H2O)0.5 solutions (Vo = 5.0 mL) were potentiometrically titrated with a standardized NaOH solution (0.098 M). The concentration distribution of various complex species existing in the solution as a function of pH was obtained using the HySS program (Alderighi et al. [1999]).
The potentiometric titration method has been applied for studying the stability of [bpyH][VO(nta)(H2O)]H2O and [phenH][VO(nta)(H2O)](H2O)0.5 in aqueous solutions. The logarithm of the overall equilibrium constants of the complex species (Table 5) were refined by least-squares calculations using the Hyperquad2008 (ver. 5.2.19) computer program (Gans et al. [1996]).

Data set [2] relates to streptozotocin-induced (STZ) diabetic rats. Also noted: method as in Thompson and Orvig [2006]. Conditions: oral, ref Thompson and Orvig [2006]; cited from earlier work.
For data set [3] the following is noted: at 25 °C; cited from earlier work.
For data set [4], the system named is MC3T3E1 derived from mouse calvaria. To be noted: cited from earlier work.
Data set [5] concerns UMR106 derived from rat osteosarcoma cells. To be noted: cited from earlier work; for Cytotoxicity, normal versus tumoral osteoblasts: MC3T3E1 (normal) versus UMR106 (tumoral); for Cellular proliferation: UMR106.
Data set [6] relates to DNA. Conditions: comparison of the three VO-oda compounds; cited from earlier work.
The subject of data set [7] is human osteosarcoma cell (MG-63). As to the kind of experiment: BrdU test, cell proliferation. In kind it is cell-based. To be noted: 48 h. How it is done:
(§1) The cell lines: two human osteosarcoma cell lines (MG-63 and HOS) and untransformed hFOB were used to assess an anti-proliferative and cytotoxic effect, respectively. hFOB cells were grown in a mixture of Dulbecco’s Modified Eagle’s Medium and Ham F12 medium (1:1 ratio), MG-63 and HOS in Eagle’s Minimum Essential Medium also containing sodium pyruvate 110 mg/L and supplemented with 10% fetal bovine serum, 6 μg/mL penicillin-G, and 10 μg/mL streptomycin.
(§2) Cultured cancer cells with 80–90% confluence were used for plating. The adherent cells were trypsinized to detach cells. 100 µL of cells were seeded into each well of the 96-wells plates (1–5 × 10^4 cells per well). The plate was maintained at 37 °C in a incubator for 48 h until 80–90% confluence. Then, old media were discarded and the cells were treated with tested compounds and cisplatin as positive control. The concentrations of investigated compounds used in experiments were carefully selected according to the results obtained from a preliminary concentration–response study (data not shown). […] Fresh solutions of cisplatin were made up for each experiment owing to its instability in water. […]
Fig. 8 The inhibition of the human osteosarcoma cell (MG-63) proliferation after an incubation with investigated compounds assessed with the BrdU-test. […] Data are expressed as mean values ± SD from three experiments. ***p < 0.001 versus control

Data set [8] relates to human osteosarcoma cell (HOS). Description: BrdU test, cell proliferation. The data set is classed as cell-based. To be noted: 48 h. The protocol: as §1, §2
Fig. 9 The inhibition of the human osteosarcoma cell (HOS) proliferation after an incubation with investigated compounds assessed with the BrdU-test. […] Data are expressed as mean values ± SD from three experiments. ***p < 0.001 versus control

Data set [9] relates to animal and human cancer cell lines. Also noted: method as in earlier work. Conditions: ref Havelek et al. [2012]; Vinklarek et al. [2004]; Gleeson et al. [2009]; Palackova et al. [2007]; cited from earlier work.
Data set [10] deals with human osteosarcoma cells. More on the design: method as in Yodoshi et al. [2007]. To be noted: rank among the three VO-oda compounds; ref Yodoshi et al. [2007]; cited from earlier work.
The subject of data set [11] is tumoral cell lines of human origin. Also noted: method as in Evangelou [2002]; D’Cruz and Uckun [2002]; Dong et al. [2000]. To be noted: leukemia, breast, ovarian, prostate and testicular cancer cells; ref Evangelou [2002]; D’Cruz and Uckun [2002]; Dong et al. [2000]; cited from earlier work.

Read-outs that look alike come from different tables or passages of the source. Marks after values point to notes of the source that are not given here. Where only a bound is given, the exact number is not on record here.

“2,2′-bipyridinium aqua-(2,2′,2′′-nitrilotriacetato)-oxo-vanadium monohydrate [[bpyH][VO(nta)(H2O)]H2O]”: in data set [1], the “Logarithm of equilibrium constant, reaction 1: A + H3O^+ ⇋ AH^+ + H2O (AH^+ = bpyH^+ or phenH^+)” value is recorded as 4.47 (0.03)^a; the “Logarithm of equilibrium constant, reaction 2 ([drawing 1])” value is 7.80 (0.06); the “Logarithm of equilibrium constant, reaction 3 ([drawing 2])” value is reported as −19.94 (0.06).
In the case of `O.O=C([O-])CN(CC(=O)[O-])CC(=O)[O-].[O]=[V+2]` [[VO(nta)(H2O)]^−], the “pH up to which the aqua complex is stable” value in data set [1] (aqueous solution, species distribution from the equilibrium constants) is listed as at most 5.
In the case of `Cc1occc(=O)c1[O-].Cc1occc(=O)c1[O-].[O]=[V+2]` [BMOV, VO(maltolato)2], the “Effect on plasma glucose levels” value in data set [2] is “lower plasma glucose levels”.
In the case of cis-Pt(NH3)2Cl2 [cisplatin], the water solubility in data set [3] is given as 0.253 g/100 mL.
On to `O=C([O-])COCC(=O)[O-].[O]=[V+2]` [VO(oda)], for which the Cellular proliferation result in data set [4] (ref Rivadeneira et al. [2010]) is given as “inhibition of a cellular proliferation”. Moreover, in data set [5] (ref Rivadeneira et al. [2010]), the “Cytotoxicity, normal versus tumoral osteoblasts” value is “stronger in the normal (MC3T3E1) than in the tumoral (UMR106) osteoblasts” and the Cellular proliferation entry was “inhibition of a cellular proliferation”. For the same compound, in data set [6], the “DNA cleavage (nuclease activity)” value is on record as “similar”.
Turning to `O.O=C([O-])CN(CC(=O)[O-])CC(=O)[O-].[O]=[V+2].c1cnc2c(c1)ccc1ccc[nH+]c12` [[phenH][VO(nta)(H2O)](H2O)0.5], the “Logarithm of equilibrium constant, reaction 1: A + H3O^+ ⇋ AH^+ + H2O (AH^+ = bpyH^+ or phenH^+)” value in data set [1] is given as 5.00 (0.04)^a. The “Logarithm of equilibrium constant, reaction 2 ([drawing 1])” value in [1] is recorded as 7.93 (0.07). Also, in data set [1], the “Logarithm of equilibrium constant, reaction 3 ([drawing 2])” value is listed as −19.91 (0.08). Besides, the “Anti-proliferative activity (BrdU incorporation)” value in [7] (1-100 μM) and in data set [8] (1-100 μM) was “most effective anti-proliferative activity” throughout. The “Anti-proliferative activity compared with cis-Pt(NH3)2Cl2” value in [7] (BrdU test) and in data set [8] (BrdU test) was “significantly higher” each time.
With `[Cl-].[Cl-].[V+4].c1cc[cH-]c1.c1cc[cH-]c1` [[VCp2Cl2], bis(cyclopentadienyl) dichloro-V(IV)], the “In vitro activity against cancer cell lines” value in data set [9] is “high in vitro activity”.
In the case of `O=C([O-])COCC(=O)[O-].[O]=[V+2].c1cnc2c(c1)ccc1cccnc12` [VO(oda)(phen)], the Cellular proliferation result in data set [4] (ref León et al. [2012b]) is given as “inhibition of the cellular proliferation”. Besides, in data set [5] (ref León et al. [2012b]), the “Cytotoxicity, normal versus tumoral osteoblasts” value is recorded as “stronger in the normal than in the tumoral osteoblasts” and the Cellular proliferation result was “inhibition of the cellular proliferation”. Also, the “DNA cleavage (nuclease activity)” value in data set [6] is given as “stronger effect”. For the same compound, the Antitumor action entry in data set [10] is “most potent antitumor action”.
Take `O=C([O-])COCC(=O)[O-].[O]=[V+2].c1ccc(-c2ccccn2)nc1` [VO(oda)(bpy)]: in data set [5] (ref León et al. [2012b]), the “Cytotoxicity, normal versus tumoral osteoblasts” value is reported as “statistically stronger in the tumoral cells”. The “DNA cleavage (nuclease activity)” value in data set [6] is recorded as “similar”.
For the compound `Cc1ccnc2c1ccc1c(C)ccnc12.Cc1ccnc2c1ccc1c(C)ccnc12.O=S(=O)([O-])[O-].[O]=[V+2]` [Metvan], in data set [11], the Apoptosis result is “induces apoptosis”.
Regarding `CCc1occc(=O)c1[O][V](=[O])[O]c1c(CC)occc1=O` [BEOV, VO(Etmaltolato)2], the “Effect on plasma glucose levels” value in data set [2] is listed as “lower plasma glucose levels”.

These data come from article PMC5352783, “Characterization and cytotoxic effect of aqua-(2,2′,2′′-nitrilotriacetato)-oxo-vanadium salts on human osteosarcoma cells” (Biometals, 2017).
